{"source": "paper PMC10610545", "about": "“Preclinical Evaluation of an Imidazole-Linked Heterocycle for Alzheimer’s Disease” (Pharmaceutics, 2023)", "key": {"[1]": {"assay": "Pharmacokinetics of LSL33 in CD1 mice (plasma and brain)", "description": "The pharmacokinetic study was carried on in male CD1 mice (Envigo Laboratories) with a body\nweight between 40 to 50 g (n = 3-4 per group). Animals were randomized to be included in the\ntreated or control groups. A single intraperitoneal dose of LSL33 (2 mg/kg, 10 ml/kg) was\nadministered early in the morning (between 8 and 11 a.m.) without anaesthesia. Compound was\nmonitored for signs of pain or distress during the time between injection and euthanasia. Mice\nwere sacrificed by cervical dislocation and blood (0.6 mL) was collected at different time points\nin tubes with serum gel and clotting activator (Sarstedt Micro tube 1.1 mL Z-Gel). Samples were\ncentrifugated at 10.000 rpm for 10 min to obtain plasma and stored at -80 °C up to analysis of\ncompound concentration by UPLC-MS/MS."}, "[2]": {"system": "Ngf, Bdnf, Tnf-a, Il-6 gene expression", "assay": "Real-time PCR gene expression in hippocampus of 5XFAD mice", "assay_type": "in vivo, mouse", "settings": "2 mg/Kg", "protocol": "Four-month-old female and male Wt and 5XFAD mice (n = 32) were used to carry out cognitive and molecular analyses. […] The animals had free access to food and water and were kept under standard temperature conditions (22 ± 2 °C) and 12 h/12 h light/dark cycles (300 lx/0 lx). […] After 4 weeks of treatment, cognitive tests, including short- and long-term memory and OLT, were performed to study the effects of treatment on learning and memory. Weight and water consumption were controlled each week, and the LSL33 concentration was adjusted accordingly to reach the optimal dose until euthanasia.\nThree days after cognitive tests, mice were euthanized for protein extraction and RNA and DNA isolation. After euthanasia, the brains were immediately removed from the skulls, and the hippocampi were dissected, frozen, and maintained at −80 °C.\nTotal RNA isolation was carried out using TRIzol® reagent according to the manufacturer’s instructions. The yield, purity, and quality of RNA were determined spectrophotometrically with a NanoDrop™ ND-1000 apparatus (Thermo Scientific, Waltham, MA, USA) and an Agilent 2100B Bioanalyzer (Agilent Technologies, Santa Clara, CA, USA). RNA samples with 260/280 ratios and RNA integrity numbers (RINs) higher than 1.9 and 7.5, respectively, were selected. A reverse transcription-polymerase chain reaction (RT-PCR) was performed. Briefly, 2 μg of messenger RNA (mRNA) was reverse-transcribed using a high-capacity cDNA reverse transcription kit (Applied Biosystems, Foster City, CA, USA).\nSYBR® Green real-time PCR was performed on a StepOnePlus Detection System (Applied Biosystems) with SYBR® Green PCR master mix (Applied Biosystems). Each reaction mixture contained 6.75 μL of complementary DNA (cDNA) (with a concentration of 2 μg), 0.75 μL of each primer (with a concentration of 100 nM), and 6.75 μL of SYBR® Green PCR master mix (2×).\nThe data were analyzed utilizing the comparative cycle threshold (Ct) (ΔΔCt) method, in which the levels of a housekeeping gene are used to normalize differences in sample loading and preparation. Normalization of expression levels was performed with β-actin for SYBR® Green-based real-time PCR. Each sample was analyzed in duplicate, and the results represent the n-fold differences in the transcript levels among different groups.\nFigure 7 Results from an in vivo study of synaptic plasticity markers. (A) Representative protein levels and quantification by WB for PSD95. (B,C) Representative gene expression for Ngf and Bdnf Gene expression levels were determined by real-time PCR. The data correspond to the mean ± SEM (n = 3–5 mice per group). […]\nFigure 8 Results from an in vivo study Neuroinflammatory markers. Representative gene expression for Tnf-a and Il-6 Gene expression levels were determined by real-time PCR. […]"}, "[3]": {"assay": "Metabolic stability in human liver microsomes", "assay_type": "in vitro ADME", "protocol": "The objective of this study was to evaluate the metabolic stability of LSL33 and its depletion rate in the presence of HLM. This was achieved by incubating LSL33 with microsomes and monitoring parent disappearance using LC/MSMS (Table S6).\nMetabolic stability of LSL33 in human liver microsomes\nThe reaction was initiated by adding HLM (1 mg/mL) to an equal volume of buffer solution containing the test compound and cofactors at the proper concentrations. Reactions without NADPH were also incubated to rule out non-NADPH metabolism or chemical instability in the […]\nincubation course. All reactions were terminated using 60 µL of ice-cold acetonitrile at 0, 5, 15, […]\n30, 45, and 60 min. […] All experiments were conducted in triplicate. Samples were monitored to parent compound disappearance by LC-MS in MRM mode according to a quantitation method for each compound.\nLSL33 was dissolved in DMSO at 0.5 mg/mL. Assay conditions, total incubation volume 400 µL, protein concentration 1 mg/mL, NADPH, 1.3 mM. Preparation of reagents: Test compound, the final concentration in the assay. […]\nprepared by dissolving appropriate amount of N ADPH in 100 mM potassium phosphate buffer. […]\nfrom Sigma-Aldrich, Germany. The equipment needed for the study was Beckman Coulter […]\ninjector, Api4000 Mass Spectrometer.\nBio-Analysis: Samples were monitored for parent compound disappearance by LC-MS in MRM mode according to a previously verified quantitation method for each compound.\nData Analysis: The peak area of analyte was used to calculate the percentage of remaining compound at each incubation time (Table S7). The natural logarithm of the percentage of reamining LSL33 was plotted versus incubation time to calculate the half -life using the following […]\ntime) see Table S8 and Figure S11 . Intrinsic clearance was determined by the following equation:\nCLint H = Ln 2/t1/2 (min) x volume incubation (mL)/microsomal protein (mg) x 45 (MPPGL) 1500 g human liver/ 70 Kg human body weight. Units for CL int are usually expressed as mL/min/mg microsomal protein (table S8), MPPGL = referred to as mg microsomal protein per gram liver.\nThe categories classification\nTable S6. Summary of LC-MS conditions\nIonization Mode Electrospray positive\nSample matrix Microsomes+ NADPH + buffer […]\nMobile phase [Water: Acetonitrile :0.1% Formic Acid]"}, "[4]": {"settings": "male, CD1, mouse, brain, po, 2 mg/kg"}, "[5]": {"settings": "male, CD1, mouse, plasma, oral, 2 mg/kg"}, "[6]": {"settings": "5XFAD hippocampus, vs 5XFAD Control"}}, "data": [{"smiles": "Cl.c1ccc2sc(-c3ncc[nH]3)cc2c1", "note": "[LSL33, 2-(Benzo[b]thiophene-2-yl)-1H-imidazole hydrochloride]", "values": [{"measurement": "concentration at 15 min", "setting": "[1]; [4]", "result": 15.2, "unit": "ng/g"}, {"measurement": "concentration at 30 min", "setting": "[1]; [4]", "result": 6.7, "unit": "ng/g"}, {"measurement": "AUC(0-inf)", "setting": "[1]; [5]", "result": 3050, "unit": "ng·h/mL"}, {"measurement": "AUC(0-t)", "setting": "[1]; [5]", "result": 2950, "unit": "ng·h/mL"}, {"measurement": "Cmax", "setting": "[1]; [5]", "result": "950 ± 620", "unit": "ng/mL"}, {"measurement": "Tmax", "setting": "[1]; [5]", "result": 15, "unit": "min"}, {"measurement": "half-life", "setting": "[1]; male, CD1, mouse, plasma, oral, 2 mg/kg, t1/2β (terminal elimination half-life), CD1 mice, single 2 mg/kg dose", "result": 313, "unit": "min"}, {"measurement": "AUC0-1440/AUC0-∞ ratio", "setting": "[1]; plasma, 2 mg/kg", "result": 0.97}, {"measurement": "t1/2β (terminal elimination half-life)", "setting": "[1]; plasma, CD1 mice, single 2 mg/kg dose, 2 mg/kg", "result": "312.81 ± 34.90", "unit": "min"}, {"measurement": "maximum mean concentration in plasma as share of the drug administered", "setting": "[1]; single oral dose", "result": "≤ 1", "unit": "%"}, {"measurement": "Il-6 gene expression", "setting": "[2]; [6]", "result": "clear tendency to reduce both cytokines"}, {"measurement": "Ngf gene expression", "setting": "[2]; [6]", "result": "significant increase in Ngf gene expression"}, {"measurement": "Tnf-a gene expression", "setting": "[2]; [6]", "result": "clear tendency to reduce both cytokines"}, {"measurement": "Bdnf gene expression", "setting": "[2]; both treated groups (Wt and 5XFAD)", "result": "clear tendency to increase"}, {"measurement": "hepatic clearance category", "setting": "[3]; HLM intrinsic clearance bands", "result": "high"}, {"measurement": "% Compound Remaining", "setting": "[3]; HLM, minus NADPH, 0 min", "result": "100.0 ± 10.2", "unit": "%"}, {"measurement": "% Compound Remaining", "setting": "[3]; HLM, minus NADPH, 60 min", "result": "96.6 ± 9.0", "unit": "%"}, {"measurement": "% Compound Remaining", "setting": "[3]; HLM, plus NADPH, 0 min", "result": "100.0±9.0", "unit": "%"}, {"measurement": "% Compound Remaining", "setting": "[3]; HLM, plus NADPH, 5 min", "result": "4.6 ± 0.4", "unit": "%"}, {"measurement": "% Compound Remaining", "setting": "[3]; HLM, plus NADPH, 15 min", "result": "0.1 ± 0.1", "unit": "%"}, {"measurement": "% Compound Remaining", "setting": "[3]; HLM, plus NADPH, 30 min", "result": "0.2 ± 0.1", "unit": "%"}, {"measurement": "% Compound Remaining", "setting": "[3]; HLM, plus NADPH, 45 min", "result": "1.3 ± 0.2", "unit": "%"}, {"measurement": "% Compound Remaining", "setting": "[3]; HLM, plus NADPH, 60 min", "result": "0.2 ± 0.3", "unit": "%"}, {"measurement": "half-life", "setting": "[3]; human, human liver microsomes, HLM", "result": 1.58, "unit": "min"}]}]}
